We go through eleven molecules from patent US20250019385A1, “SPIROCYCLIC ANNULATED 2-AMINO-3-CYANO THIOPHENES AND DERIVATIVES FOR THE TREATMENT OF CANCER” (Boehringer Ingelheim International GmbH, priority 2023, published 2025).

A word on the IC50: it is the concentration that inhibits the measured activity by half. The low end stands for inhibition by little substance, the high end for a need for much substance. Broadly, the solubility is the concentration that dissolves in the medium under given conditions.

The nature of series [1]: Plasma protein binding assay (PPB), equilibrium dialysis. It is filed as in vitro ADME. The conditions noted are these: bovine, 10% FCS in PBS, read-out: PPB 10% FCS (% fu). The method, then:
Binding of test compounds to plasma was determined using equilibrium dialysis (ED) and quantitative mass spectrometry interfaced with liquid chromatography (LC-MS). In brief, ED was performed with dialysis devices consisting of two chambers separated by a semipermeable membrane with a molecular weight cut-off of 5-10 kg/mol. One chamber was filled with 10% FCS in PBS containing 1-10 μmol/L test compound and the other chamber was filled with phosphate-buffer saline (PBS) with or without dextran. The dialysis chamber was incubated for 3-5 hours at 37° C. After incubation, protein was precipitated from aliquots of each chamber and the concentration of test compound in the supernatant of the plasma-containing compartment (cserum) and of the buffer-containing compartment (cbuffer) was determined by LC-MS. The fraction of unbound test compound (not bound to plasma) (f) was calculated according to the following equation: […]
Background: In equilibrium dialysis free small molecules cross a membrane that holds back macromolecules.

In series [2] the target is KRAS (G12C)::SOS1 protein-protein interaction (Homo sapiens (Human), UniProt P01116, C118S/C51S/C80L/G12C). Description: KRAS::SOS1 AlphaScreen binding assay (KRAS G12C). Particulars: GDP. The source says:
This assay can be used to examine the potency with which compounds according to the invention binding to (mutated) KRAS inhibit the protein-protein interaction between SOS1 and (mutated) KRAS e.g. KRAS G12C, KRAS G12D. […] Low IC50 values in this assay setting are indicative of strong inhibition of protein-protein interaction between SOS1 and KRAS:
These assays measure the inhibitory effect of compounds on KRAS mutant protein-protein interactions using the Alpha Screen technology by Perkin Elmer.
The following (mutant) enzyme forms of KRAS and interacting proteins are used in these assays at the given concentrations:
KRAS (G12C) 1-169, N-terminal 6His-tag for purification, cleaved off, C-terminal avi-tag, biotinylated, mutations: C51S, C80L, C118S (in house); final assay concentration 7.5 nM and SOS1 564-1049, N-terminal 229 GST-tag, TEV cleavage site (Viva Biotech Ltd); final assay concentration 5 nM;
Test compounds dissolved in DMSO are dispensed onto assay plates (Proxiplate 384 PLUS, white, PerkinElmer; 6008289) using an Access Labcyte Workstation with the Labcyte Echo 55x. For the chosen highest assay concentration of 100 μM, 150 nL of compound solution are transferred from a 10 mM DMSO compound stock solution. A series of eleven fivefold dilutions per compound are transferred to the assay plate, compound dilutions are tested in duplicates. DMSO are added as backfill to a total volume of 150 nL.
The assays run on a fully automated robotic system in a darkened room below 100 Lux. To 150 nl of compound dilution 10 μl of a mix including KRAS mutant protein, SOS1 (final assay concentrations see above) and GDP nucleotide (Sigma G7127; final assay concentration 10 μM) in assay buffer (1×PBS, 0.1% BSA, 0.05% Tween 20) are added into columns 1-24.
After 30 minutes incubation time 5 μl of Alpha Screen bead mix in assay buffer are added into columns 1-23. Bead mix consists of AlphaLISA Glutathione Acceptor Beads (PerkinElmer, Cat No AL109) and AlphaScreen Streptavidin Donor Beads (PerkinElmer Cat No 6760002) in assay buffer at a final assay concentration of 10 μg/mL each.
Plates are kept at room temperature in a darkened incubator. After an additional 60 minutes incubation time the signal is measured in a PerkinElmer Envision HTS Multilabel Reader using the AlphaScreen specs from PerkinElmer.
Each plate contains up to 16 wells of a negative control depending on the dilution procedure (platewise or serial) (DMSO instead of test compound; with KRAS mutant::SOS1 GOP mix and bead mix; column 23) and 16 wells of a positive control (DMSO instead of test compound; with KRAS mutant::SOS1 GOP mix w/o bead mix; column 24).
As internal control known inhibitors of KRAS mutant::SOS1 interaction can be measured on each compound plate.
IC50 values are calculated and analyzed with Boehringer Ingelheim's MEGALAB C50 application using a 4 parametric logistic model.
Tables of example compounds disclosed herein contain IC50 values determined using the above assays (see Table 43).

Series [3] relates to MKN1 cells. Description: MKN1 CTG proliferation assay (120 h) (gastric cancer, wt amplified). Particulars: Homo sapiens, MKN-1. The class given is cell-based. The method, then:
MKN1 cells (JCRB0252) are dispensed into black 384-well plates, flat and clear bottom (Greiner, PNr. 781091) at a density of 200 cells per well in 60 μl RPMI-1640 ATCC-Formulation (Gibco #A10491)+10% FCS (fetal calf serum, HyClone, SH30084.03). Cells are incubated overnight at 37° C. in a humidified tissue culture incubator at 5% CO2. Compounds (10 mM stock in DMSO) are added at logarithmic dose series using the ECHO acoustic liquid handler system (Beckman Coulter), normalizing for added DMSO and including DMSO controls. All compound treatments are performed in technical duplicates. For the TO time point measurement, untreated cells are analyzed at the time of compound addition. Plates are incubated for 120 h, and cell viability is measured using CellTiter-Glo luminescent cell viability reagent (Promega product code G7570). Viability (stated as percent of control) is defined as relative luminescence units RLU of each well divided by the RLU of cells in DMSO controls. IC50 values are determined from viability measurements by non-linear regression using a four-parameter model.
IC50 values of representative compounds according to the invention measured with these assays in the indicated cell lines are presented in Table 46.

Series [4] is described as follows: Solubility measurement (DMSO solution precipitation method). The class given is physicochemical. The conditions noted are these: aqueous buffer, kinetic from dmso stock. The essentials: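 A 10 mM DMSO stock was diluted to 250 μM final in McIlvaine buffer at pH 4.5 or 6.8, then shaken 24 h at ambient temperature. After filtering off precipitate, filtrate concentration was quantified by LC-UV against a fully dissolved reference in acetonitrile/water (1:1).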

[5] abbreviates: McIlvaine buffer pH 4.5, 24 h, read-out: solubility pH 4.5.
Where [6] appears, read: McIlvaine buffer pH 6.8, 24 h, read-out: solubility pH 6.8.

Structures are written as SMILES. Values after ≈ are worked out from the molar mass of the structure shown. Read-outs that look alike come from different tables or passages of the source. A value given as a limit tells only on which side of the number the result lay.

Sequence of KRAS (G12C)::SOS1 protein-protein interaction (P01116 other isoform, or with tags, fused parts or gaps G12C/C51S/C80L/C118S): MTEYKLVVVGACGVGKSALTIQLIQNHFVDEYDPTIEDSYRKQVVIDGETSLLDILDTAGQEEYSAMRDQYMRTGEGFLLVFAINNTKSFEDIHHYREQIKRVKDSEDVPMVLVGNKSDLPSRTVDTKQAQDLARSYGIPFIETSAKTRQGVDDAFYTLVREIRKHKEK

Turning to `C[C@H](Oc1nc(-c2onc3c2CCC[C@@]32CCCc3sc(N)c(C#N)c32)nc2c1n(C)c(=O)n2C12COC(C1)C2)[C@@H]1CCCN1C` [I-15], in series [1], the fraction unbound was determined as 0.13. Besides, the results for the IC50 in series [2] and in series [3] were 2 nM and 47 nM, respectively. The figures for the solubility at 24 h in series [4] (setting [5]) and in series [4] (setting [6]) were over 150 µg/mL and over 153 µg/mL, respectively.
For `CO[C@H]1C[C@H](n2c(=O)n(C)c3c(O[C@@H](C)[C@@H]4CCCN4C)nc(-c4onc5c4CCC[C@@]54CCCc5sc(N)c(C#N)c54)nc32)C1` [I-16], in that order: 0.13, 5 nM, 353 nM, over 154 µg/mL and over 138 µg/mL.
Turning to `C[C@H](Oc1nc(-c2onc3c2CCC[C@@]32CCCc3sc(N)c(C#N)c32)nc2c1n(C)c(=O)n2[C@H]1CC2CCC1O2)[C@@H]1CCCN1C` (stereo partly shown) [I-17], the fraction unbound in series [1] is 0.04. Moreover, the figures for the IC50 in series [2] and in series [3] were 2 nM and 325 nM, respectively. Also, the results for the solubility at 24 h in series [4] (setting [5]) and in series [4] (setting [6]) were over 155 µg/mL and over 148 µg/mL, respectively.
Consider `C[C@H](Oc1nc(-c2onc3c2CCC[C@@]32CCCc3sc(N)c(C#N)c32)nc2c1n(C)c(=O)n2[C@@H]1CC2CCC1O2)[C@@H]1CCCN1C` (stereo partly shown) [I-18], for which, in series [1], the fraction unbound is 0.2. Further, the IC50 in series [2] worked out at 4 nM; in series [3], 457 nM. Moreover, the figures for the solubility at 24 h in series [4] (setting [5]) and in series [4] (setting [6]) were over 151 µg/mL and 97 µg/mL (≈ 148 µM), respectively.
As to `C[C@H](Oc1nc(-c2onc3c2CCC[C@@]32CCCc3sc(N)c(C#N)c32)nc2c1n(C)c(=O)n2[C@H]1CCC[C@@H]1O)[C@@H]1CCCN1C` [I-19], the fraction unbound in series [1] was 0.05. Besides, the IC50 in series [2] came to 2 nM; in series [3] it was 1040 nM. For the same molecule, the figures for the solubility at 24 h in series [4] (setting [5]) and in series [4] (setting [6]) were over 152 µg/mL and over 146 µg/mL, respectively.
On the same counts, the results for `C[C@H](Oc1nc(-c2onc3c2CCC[C@@]32CCCc3sc(N)c(C#N)c32)nc2c1n(C)c(=O)n2[C@@H]1CCOC1)[C@@H]1CCCN1C` [I-20] are 0.28, 1 nM, 8 nM, over 151 µg/mL and over 154 µg/mL.
Turning to `CCn1c(=O)n([C@@H]2CCOC2)c2nc(-c3onc4c3CCC[C@@]43CCCc4sc(N)c(C#N)c43)nc(O[C@@H](C)[C@@H]3CCCN3C)c21` [I-21], the fraction unbound in series [1] was 0.16. The IC50 was 1 nM in series [2] and 22 nM in series [3]. Moreover, the solubility at 24 h is over 157 µg/mL in series [4] (setting [5]) and over 144 µg/mL in series [4] (setting [6]).
For the molecule `C[C@H](Oc1nc(-c2onc3c2CCC[C@@]32CCCc3sc(N)c(C#N)c32)nc2c1n(C)c(=O)n2[C@@H]1CCOC1)[C@@H]1C[C@@H](F)CN1C` [I-22], the fraction unbound in series [1] came to 0.19. The IC50 in series [2] turned out to be 1 nM; in series [3] it was 14 nM. Further, the solubility at 24 h in series [4] (setting [5]) is over 154 µg/mL; in series [4] (setting [6]), 12 µg/mL (≈ 18.5 µM).
As to `CO[C@H]1CCN(C)[C@@H]1[C@H](C)Oc1nc(-c2onc3c2CCC[C@@]32CCCc3sc(N)c(C#N)c32)nc2c1n(C)c(=O)n2[C@@H]1CCOC1` [I-23], the fraction unbound in series [1] was 0.22. The values for the 50% inhibitory concentration (IC50) in series [2] and in series [3] were 1 nM and 6 nM, respectively. Further, the solubility at 24 h was over 157 µg/mL in series [4] (setting [5]) and 36 µg/mL (≈ 54.5 µM) in series [4] (setting [6]).
Take `C[C@H](Oc1nc(-c2onc3c2CCC[C@@]32CCCc3sc(N)c(C#N)c32)nc2c1n(C)c(=O)n2C1COC1)[C@@H]1CCCN1C` [I-24]: in series [1], the fraction unbound stood at 0.18. For the same molecule, the concentration for half-maximal inhibition (IC50) in series [2] was found to be 2 nM; in series [3], 355 nM. For the same molecule, the solubility at 24 h is over 155 µg/mL in series [4] (setting [5]) and over 140 µg/mL in series [4] (setting [6]).
`C[C@H](Oc1nc(-c2onc3c2CCC[C@@]32CCCc3sc(N)c(C#N)c32)nc2c1n(C)c(=O)n2[C@@H]1CCOC1)C12CCCN1CCC2` [I-25]: in series [1], the fraction unbound was 0.26. In addition, the half-inhibitory concentration (IC50) in series [2] came to 2 nM; in series [3], 48 nM. The results for the solubility at 24 h in series [4] (setting [5]) and in series [4] (setting [6]) were over 155 µg/mL and over 154 µg/mL, respectively.
